The record followed here is patent publication US12643903B2, “Bifunctional compounds for degradation of EGFR and related methods of use” (BeiGene, Ltd., priority 2020, dated 2026).

For orientation: DC50 means the concentration at which degradation of the target reaches its halfway point. Higher therefore signals degradation only at high concentration.

The test system of assay [1] is EGFR DTC. As to the kind of experiment: Cell Degradation 3: EGFR degradation in BaF3 cells (DTC), HTRF assay. The settings on record: 16 h treatment, EGFR degradation by HTRF. Type of assay: cell-based. The protocol: (§1) Cell Degradation 3 Cell Treatment
(§2) BaF3 cells are treated with compounds diluted in 0.2% DMSO, dilution is done according to the following protocol: (1) make 500× stock solution in DMSO from 5 mM by 4-fold dilution, total 8 doses were included; (2) make 2× solution in cell culture medium by transferring 0.5 μl 500× stock solution into 125 μl medium; (3) 30 μl of 2× solution is added to cells and incubate for 16 h.
(§3) After 16 h treatment, add 20 μl 4×lysis buffer to each well; seal the plate and incubate 1 hour at room temperature on a plate shaker; Once the cells are lysed, 16 μL of cell lysate are transferred to a PE 384-well HTRF detection plate (for triple mutant cells, the lysate were diluted by the qual volume 1×lysis buffer before transfer); 4 μL of pre-mixed HTRF antibodies are added to each well; Cover the plate with a plate sealer, spin 1000 rpm for 1 min, Incubate overnight at room temperature; Read on BMG PheraStar with HTRF protocol (337 nm-665 nm-620 nm).
(§4) The IC50 (DC50) value of a compound can be obtained by fitting the following equation Y=Bottom+(TOP−Bottom)/(1+((IC50/X)^hillslope))
(§5) Wherein, X and Y are known values, and IC50, Hillslope, Top and Bottom are the parameters obtained by fitting with software. Y is the inhibition percentage (calculated from the equation), X is the concentration of the compound; IC50 is the concentration of the compound when the 50% inhibition is reached. The smaller the IC50 value is, the stronger the inhibitory ability of the compound is. Vice versa, the higher the IC50 value is, the weaker the ability the inhibitory ability of the compound is; Hillslope represents the slope of the fitted curve, generally around 1*; Bottom represents the minimum value of the curve obtained by data fitting, which is generally 0%±20%; Top represents the maximum value of the curve obtained by data fitting, which is generally 100%±20%. The experimental data were fitted by calculating and analyzing with Dotmatics data analysis software.
On the technique in general: Time-resolved FRET reads energy transfer from a long-lived donor to a nearby acceptor.

In assay [2] the target is T1, EGFR LTC (Homo sapiens, UniProt P00533, C797S/L858R/T790M).
T1 construct: expressed in transfected cells; host or cells: BaF3
Put plainly: Cell Degradation 3: EGFR degradation in BaF3 cells (LTC), HTRF assay. Format: cell-based. To be noted: 16 h treatment, EGFR degradation by HTRF. The protocol:
as §1, §2, §3, §4, §5

T1 sequence (P00533 25-1210 T790M/C797S/L858R): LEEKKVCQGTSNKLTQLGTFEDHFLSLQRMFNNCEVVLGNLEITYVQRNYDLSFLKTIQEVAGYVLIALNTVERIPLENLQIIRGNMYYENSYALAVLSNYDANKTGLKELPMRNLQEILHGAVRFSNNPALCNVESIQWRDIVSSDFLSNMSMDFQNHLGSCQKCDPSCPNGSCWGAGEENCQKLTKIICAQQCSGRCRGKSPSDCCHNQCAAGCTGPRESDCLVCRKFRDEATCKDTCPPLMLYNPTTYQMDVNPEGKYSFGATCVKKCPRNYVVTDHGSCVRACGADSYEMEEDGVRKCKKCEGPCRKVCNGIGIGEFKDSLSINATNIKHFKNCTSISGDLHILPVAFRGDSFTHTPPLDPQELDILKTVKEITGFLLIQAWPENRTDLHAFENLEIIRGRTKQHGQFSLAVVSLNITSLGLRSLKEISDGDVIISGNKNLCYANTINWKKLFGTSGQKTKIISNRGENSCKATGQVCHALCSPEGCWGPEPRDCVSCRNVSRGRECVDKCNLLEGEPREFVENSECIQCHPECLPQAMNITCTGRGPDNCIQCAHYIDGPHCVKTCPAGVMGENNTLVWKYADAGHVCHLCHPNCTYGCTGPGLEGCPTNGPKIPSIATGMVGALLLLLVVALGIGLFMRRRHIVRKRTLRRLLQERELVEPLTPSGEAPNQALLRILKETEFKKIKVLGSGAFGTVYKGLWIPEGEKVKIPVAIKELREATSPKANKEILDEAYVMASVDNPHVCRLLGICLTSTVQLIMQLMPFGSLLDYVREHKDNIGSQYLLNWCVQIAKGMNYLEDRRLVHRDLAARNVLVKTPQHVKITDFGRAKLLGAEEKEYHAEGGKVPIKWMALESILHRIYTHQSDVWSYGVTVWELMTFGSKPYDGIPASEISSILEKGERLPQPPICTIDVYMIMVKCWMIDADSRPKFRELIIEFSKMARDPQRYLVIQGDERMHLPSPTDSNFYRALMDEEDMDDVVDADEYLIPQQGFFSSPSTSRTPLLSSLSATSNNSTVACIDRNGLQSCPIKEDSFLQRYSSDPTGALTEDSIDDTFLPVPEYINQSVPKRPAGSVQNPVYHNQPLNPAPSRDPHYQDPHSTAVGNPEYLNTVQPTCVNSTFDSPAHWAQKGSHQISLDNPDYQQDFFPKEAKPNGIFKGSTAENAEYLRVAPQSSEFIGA

Consider `COc1cc(N2CCC(N3CCN(CCc4cc(Cl)c(C5CCC(=O)NC5=O)cc4F)CC3)CC2)c(C)cc1Nc1ncc(Br)c(Nc2cccc3c2N(S(C)(=O)=O)CC3)n1` (stereo not drawn) [Example 174, 3-(4-(2-(4-(1-(4-((5-bromo-4-((1-(methylsulfonyl)indolin-7-yl)amino)pyrimidin-2-yl)amino)-5-methoxy-2-methylphenyl)piperidin-4-yl)piperazin-1-yl)ethyl)-2-chloro-5-fluorophenyl)piperidine-2,6-dione], for which the DC50 was determined as 30 nM in assay [1] and 69 nM in assay [2].

As to `COc1cc(N2CCC(N3CCN(C4CC(c5ccc(NC6CCC(=O)NC6=O)cc5)C4)CC3)CC2)c(C)cc1Nc1ncc(Br)c(Nc2cccc3c2N(S(C)(=O)=O)CC3)n1` (stereo not drawn) [Example 182, 3-((4-(3-(4-(1-(4-((5-bromo-4-((1-(methylsulfonyl)indolin-7-yl)amino)pyrimidin-2-yl)amino)-5-methoxy-2-methylphenyl)piperidin-4-yl)piperazin-1-yl)cyclobutyl)phenyl)amino)piperidine-2,6-dione], the DC50 in assay [1] amounted to 77 nM; in assay [2], 70 nM.

Take `COc1cc(N2CCC(N3CCN(C[C@H]4CCN(c5ccc6c(c5)C(=O)N(C5CCC(=O)NC5=O)C6=O)C4)CC3)CC2)c(C)cc1Nc1ncc(Br)c(Nc2cccc3c2N(S(C)(=O)=O)CC3)n1` (stereo partly drawn) [Example 156, 5-((R)-3-((4-(1-(4-((5-bromo-4-((1-(methylsulfonyl)indolin-7-yl)amino)pyrimidin-2-yl)amino)-5-methoxy-2-methylphenyl)piperidin-4-yl)piperazin-1-yl)methyl)pyrrolidin-1-yl)-2-(2,6-dioxopiperidin-3-yl)isoindoline-1,3-dione]: the results for the DC50 in assay [1] and in assay [2] were 21 nM and 33 nM, respectively.

As to `COc1cc(N2CCC(N3CCN(C4CCN(c5ccc6c(c5)C(=O)N(C5CCC(=O)NC5=O)C6=O)CC4)CC3)CC2)c(C)cc1Nc1ncc(Br)c(Nc2cccc3c2N(S(C)(=O)=O)CC3)n1` (stereo not drawn) [Example 167, 5-(4-(4-(1-(4-((5-bromo-4-((1-(methylsulfonyl)indolin-7-yl)amino)pyrimidin-2-yl)amino)-5-methoxy-2-methylphenyl)piperidin-4-yl)piperazin-1-yl)piperidin-1-yl)-2-(2,6-dioxopiperidin-3-yl)isoindoline-1,3-dione], the DC50 in assay [1] was 225 nM; in assay [2], greater than 10000 nM.

`COc1cc(N2CCC(N3CCN(C(=O)[C@H]4C[C@H](N(C)c5ccc6c(c5)C(=O)N(C5CCC(=O)NC5=O)C6=O)C4)CC3)CC2)c(C)cc1Nc1ncc(Br)c(Nc2cccc3c2N(S(C)(=O)=O)CC3)n1` (stereo partly drawn) [Example 158, 5-(((1r,3r)-3-(4-(1-(4-((5-bromo-4-((1-(methylsulfonyl)indolin-7-yl)amino)pyrimidin-2-yl)amino)-5-methoxy-2-methylphenyl)piperidin-4-yl)piperazine-1-carbonyl)cyclobutyl)(methyl)amino)-2-(2,6-dioxopiperidin-3-yl)isoindoline-1,3-dione]: the DC50 in assay [1] stood at 19 nM; in assay [2], 41 nM.

In the case of `COc1cc(N2CCC(N3CCN(CC4CN(c5ccc(C6CCC(=O)NC6=O)c(F)c5)C4)CC3)CC2)c(C)cc1Nc1ncc(Br)c(Nc2cccc3c2N(S(C)(=O)=O)CC3)n1` (stereo not drawn) [Example 169, 3-(4-(3-((4-(1-(4-((5-bromo-4-((1-(methylsulfonyl)indolin-7-yl)amino)pyrimidin-2-yl)amino)-5-methoxy-2-methylphenyl)piperidin-4-yl)piperazin-1-yl)methyl)azetidin-1-yl)-2-fluorophenyl)piperidine-2,6-dione], the DC50 stood at 39 nM in assay [1] and 57 nM in assay [2].

For `COc1cc(N2CCC(N3CCN(CCc4cc(F)c(C5CCC(=O)NC5=O)cc4F)CC3)CC2)c(C)cc1Nc1ncc(Br)c(Nc2cccc3c2N(S(C)(=O)=O)CC3)n1` (stereo not drawn) [Example 155, 3-(4-(2-(4-(1-(4-((5-bromo-4-((1-(methylsulfonyl)indolin-7-yl)amino)pyrimidin-2-yl)amino)-5-methoxy-2-methylphenyl)piperidin-4-yl)piperazin-1-yl)ethyl)-2,5-difluorophenyl)piperidine-2,6-dione], the results for the DC50 in assay [1] and in assay [2] were 19 nM and 56 nM, respectively.

As to `COc1cc(N2CCC(N3CCN(CCC4CCN(c5cc(F)c(C6CCC(=O)NC6=O)c(F)c5)CC4)CC3=O)CC2)c(C)cc1Nc1ncc(Br)c(Nc2cccc3c2N(S(C)(=O)=O)CC3)n1` (stereo not drawn) [Example 186, 3-(4-(4-(2-(4-(1-(4-((5-bromo-4-((1-(methylsulfonyl)indolin-7-yl)amino)pyrimidin-2-yl)amino)-5-methoxy-2-methylphenyl)piperidin-4-yl)-3-oxopiperazin-1-yl)ethyl)piperidin-1-yl)-2,6-difluorophenyl)piperidine-2,6-dione], the values for the DC50 in assay [1] and in assay [2] were 6 nM and 27 nM, respectively.

On to `COc1cc(N2CCC(N3CCN(C[C@@H]4CCN(c5ccc6c(c5)C(=O)N(C5CCC(=O)NC5=O)C6=O)C4)CC3)CC2)c(C)cc1Nc1ncc(Br)c(Nc2cccc3c2N(S(C)(=O)=O)CC3)n1` (stereo partly drawn) [Example 164, 5-((S)-3-((4-(1-(4-((5-bromo-4-((1-(methylsulfonyl)indolin-7-yl)amino)pyrimidin-2-yl)amino)-5-methoxy-2-methylphenyl)piperidin-4-yl)piperazin-1-yl)methyl)pyrrolidin-1-yl)-2-(2,6-dioxopiperidin-3-yl)isoindoline-1,3-dione], for which the values for the DC50 in assay [1] and in assay [2] were 52 nM and 60 nM, respectively.

Turning to `COc1cc(N2CCC(N3CCN(CCOc4cccc5c4C(=O)N(C4CCC(=O)NC4=O)C5=O)CC3)CC2)c(C)cc1Nc1ncc(Br)c(Nc2cccc3c2N(S(C)(=O)=O)CC3)n1` (stereo not drawn) [Example 166, 4-(2-(4-(1-(4-((5-bromo-4-((1-(methylsulfonyl)indolin-7-yl)amino)pyrimidin-2-yl)amino)-5-methoxy-2-methylphenyl)piperidin-4-yl)piperazin-1-yl)ethoxy)-2-(2,6-dioxopiperidin-3-yl)isoindoline-1,3-dione], the values for the DC50 in assay [1] and in assay [2] were 175 nM and 247 nM, respectively.

In the case of `COc1cc(N2CCC(N3CCN(CC4CN(c5ccc6c(c5)C(=O)N(C5CCC(=O)NC5=O)C6=O)C4)CC3)CC2)c(C)cc1Nc1ncc(Br)c(Nc2cccc3c2N(S(C)(=O)=O)CC3)n1` (stereo not drawn) [Example 151, 5-(3-((4-(1-(4-((5-bromo-4-((1-(methylsulfonyl)indolin-7-yl)amino)pyrimidin-2-yl)amino)-5-methoxy-2-methylphenyl)piperidin-4-yl)piperazin-1-yl)methyl)azetidin-1-yl)-2-(2,6-dioxopiperidin-3-yl)isoindoline-1,3-dione], the results for the DC50 in assay [1] and in assay [2] were 14 nM and 17 nM, respectively.

For the molecule `COc1cc(N2CCC(N3CCN(C(=O)C4CN(c5cc(F)c(C6CCC(=O)NC6=O)c(F)c5)C4)CC3)CC2)c(C)cc1Nc1ncc(Br)c(Nc2cccc3c2N(S(C)(=O)=O)CC3)n1` (stereo not drawn) [Example 188, 3-(4-(3-(4-(1-(4-((5-bromo-4-((1-(methylsulfonyl)indolin-7-yl)amino)pyrimidin-2-yl)amino)-5-methoxy-2-methylphenyl)piperidin-4-yl)piperazine-1-carbonyl)azetidin-1-yl)-2,6-difluorophenyl)piperidine-2,6-dione], the DC50 in assay [1] is 6 nM; in assay [2], 15 nM.
